Source: ChEMBL document CHEMBL1159335, “Structures of new cyclic diarylheptanoids and inhibitors of nitric oxide production from Japanese folk medicine Acer nikoense” (J Nat Prod, 2003)

Tests used:
[1] = Cytotoxicity against ddY mouse macrophages after 20 hrs by MTT assay; assay type: cell-based; settings: macrophage
Macrophage [2] = experiment: Inhibition of LPS-induced NO production in ddY mouse peritoneal macrophages at 1 uM by Griess reagent method; assay type: functional
Macrophage [3] = experiment: Inhibition of LPS-induced NO production in ddY mouse peritoneal macrophages by Griess reagent method; assay type: functional, cell-based
Macrophage [4] = experiment: Inhibition of LPS-induced NO production in ddY mouse peritoneal macrophages at 100 uM by Griess reagent method; assay type: functional
Macrophage [5] = experiment: Inhibition of LPS-induced NO production in ddY mouse peritoneal macrophages at 10 uM by Griess reagent method; assay type: functional
Macrophage [6] = experiment: Inhibition of LPS-induced NO production in ddY mouse peritoneal macrophages at 3 uM by Griess reagent method; assay type: functional
Macrophage [7] = experiment: Inhibition of LPS-induced NO production in ddY mouse peritoneal macrophages at 30 uM by Griess reagent method; assay type: functional

IC50 (Macrophage [3])	Compound	Activity [1]	inhibition at 1 µM (Macrophage [2])	inhibition at 100 µM (Macrophage [4])	inhibition at 10 µM (Macrophage [5])	inhibition at 3 µM (Macrophage [6])	inhibition at 30 µM (Macrophage [7])
73 µM	Oc1ccc(CCCC[C@@H](O)CCc2ccc(O)cc2)cc1	Non-toxic	-1.3%	67.2%	-1.1%	1.3%	10.7%
74 µM	Oc1ccc2cc1Oc1ccc(cc1)CC[C@H](O)CCCC2 [ACEROGENIN A]	Non-toxic	6.7%	61.4%	11.6%	5.8%	22.2%
88 µM	Oc1ccc2cc1Oc1ccc(cc1)CCCC[C@H](O)CC2 [ACEROGENIN B]	Non-toxic	1.9%	54.1%	-0.2%	-0.5%	17.6%
24 µM	O=C1CCCCc2ccc(O)c(c2)-c2cc(ccc2O)CC1 [ACEROGENIN E]	Non-toxic	0.1%	81.2%	13.6%	3.3%	59.4%
25 µM	Oc1ccc2cc1-c1cc(ccc1O)CCC(O)CCCC2 (stereo not given) [ACEROGENIN K]	Non-toxic	6.6%	91.3%	24.3%	2.1%	56.6%
